Data on 22 molecules can be found in patent US7101980B2, “Derivatives, conjugates, and antibodies for detecting ecstasy-class analytes” (Roche Diagnostics Operations, Inc., priority 2002, dated 2006).

Common to all, as to type: binding, mouse
One assay has as its system antibody MDMA 2.1.1. The assay can be described thus: Cross-reactivity of antibody MDMA 2.1.1 with various drugs (ELISA cross-reactivity assay). As to conditions: antibody MDMA 2.1.1 (elicited by immunogen 12, T=KLH); ED50 of standard / ED50 of drug x 100; MDMA = 100. As to the method:
In Table 1, the abbreviation d-AMP represents d-amphetamine, the abbreviation d-MAMP represents d-methamphetamine, the abbreviation l-AMP represents l-amphetamine, the abbreviation l-MAMP represents l-methamphetamine, and the abbreviation MDPA represents 3,4-methylenedioxy-N-propylamphetamine.
Microplates were coated with […] methylenedioxymethamphetamine-BSA conjugate 12 (T=BSA, 12b) at a concentration of 1 mg/mL, and separate microplates were coated with either 100 μL methamphetamine-BSA (MAMP-BSA) 28 at a concentration of 1 mg/mL or with 100 μL of amphetamine-BSA (AMP-BSA) 30 at a concentration of 1 mg/mL.
The plates were incubated covered for 1 hour at 37° C. (humidified). The plates were then emptied and filled with a post-coat solution consisting of Tris buffer, 1% gelatin hydrolysate, 2% sucrose, and 0.17% TWEEN 20. (All reagents were from Sigma Chemical Co.) The plates were incubated covered for an additional 1 hour at 37° C. (humidified), after which they were washed with phosphate-buffered saline containing 0.1% TWEEN 20. The plates were then filled with a 2% sucrose solution in 0.15 M Tris, pH 7.2–7.4, briefly, then emptied and allowed to air dry at room temperature. When dried, the plates were packed in ZIPLOC (Dow Chemical Co.) plastic bags containing several desiccant pillows, sealed, and stored at 4° C. until use.
For the primary screening of the growing clones from the fusion plates, only the MDMA-BSA 12 (T=BSA, 12b) coated plates were used. Fifty microliters of PBS was added to each well, followed by 50 μL of the sample of culture media from wells on the fusion plate, diluted 1:10 in PBS. The plates were incubated covered for 1 hour at 37° C., then washed with PBS-TWEEN (0.1%). The wells were then filled with 100 μL of goat anti-mouse IgG-HRP conjugate (Zymed Labs), diluted in PBS-TWEEN, and the plates re-incubated for 1 hour. The plates were then washed again and 100 μL of K-Blue Substrate (Neogen Corp.) added. This was allowed to develop for 5–15 minutes, the reaction being stopped by the addition of 100 μL of 1 N HCl. Color was read by means of a microplate reader at 450 nm and collected by computer for analysis. […] Cells were subjected to limiting dilution subcloning, and upon appearance of growth, were tested by a secondary screen.
(§1) Supernatants were subjected to serial dilutions and re-tested in the ELISA screen above. The dilution providing for about a 50% reduction from the maximum OD was chosen for proceeding to cross-reactivity testing. This comprised repeating the preceding assay with the antibody at the chosen dilution and in the presence of varying concentrations of drugs.
For orientation: ELISA stands for enzyme-linked immunosorbent assay.

The next assay relates to antibody NEAMP 48.2. The assay can be described thus: Cross-reactivity of NEAMP 48.2 with various drugs generated in a KIMS assay (ONLINE DAT II). As to conditions: antibody NEAMP 48.2 (immunogen 26, Q=KLH); KIMS immunoassay; MDEA as standard = 100.
A further assay relates to antibody NEAMP 62.1. The assay is described as follows: Cross-reactivity of NEAMP 62.1 with various drugs generated in a KIMS assay (ONLINE DAT II). Conditions: antibody NEAMP 62.1 (immunogen 26, Q=KLH); KIMS immunoassay; MDEA as standard = 100.
Another assay relates to antibody NEAMP 1.3. The assay can be described thus: Cross-reactivity of NEAMP 1.3 with various drugs generated in an ELISA assay. As to conditions: antibody NEAMP 1.3 (immunogen 26, Q=KLH), MDEA as standard = 100. As to the method: Antibodies elicited by the immunogen 12, e.g., wherein T is KLH, show good response and specificity to ecstasy-class drugs. Furthermore, these antibodies show little or no cross-reactivity to related drugs. By determining the drug concentration that results in a 50% reduction in binding (ED50) of a standard, methamphetamine, dividing by the ED50 of each other drug, and then multiplying the result by 100, the percent cross-reactivity was calculated.
Tables 2, 3, and 4 show cross-reactivity data for the antibodies NEAMP 1.3, NEAMP 48.2, and NEAMP 62.1, which were generated in response to immunogen 26 of FIG. 2 wherein Q is KLH. By the procedure described above, using MDEA as a standard, the percent cross-reactivities shown in Tables 2, 3, and 4 were calculated.
Microplates were coated with 100 μL methamphetamine-BSA conjugate 28 (for screening for NEAMP 1.3) or 100 μL of MDEA-BSA conjugate 36 (for screening for NEAMP 48.2 and NEAMP 62.1), and separate microplates were coated with 100 μL N-ethylamphetamine-BSA 26 (Q=BSA, 26b) at 1 μg/mL in 0.1 M carbonate buffer, pH 9.5, for 1 hour at 37° C. (humidified). The plates were then emptied and filled with a post-coat solution containing Tris buffer, 1% gelatin hydrolysate, 2% sucrose, and 0.17% TWEEN 20. (All reagents were from Sigma Chemical Co.) The plates were incubated for an additional 1 hour at 37° C. (humidified), after which they were washed with phosphate-buffered saline containing 0.1% TWEEN 20. The plates were then filled with a 2% sucrose solution in 0.15 M Tris, pH 7.2–7.4, briefly, then emptied and allowed to air-dry at room temperature. When dried, the plates were packed in ZIPLOC bags containing several desiccant pillows, sealed, and stored at 4° C. until use.
When the growing clones were judged ready for testing, 25 μL of supernatant from the wells were taken and transferred to 96-well flexible plates. Culture medium was added to each well to provide a 1:10 dilution of the media sample. One hundred microliters of the diluted sample were transferred to each of the coated plates above. The plates were incubated covered for 1 hour at 37° C., then washed with PBS-TWEEN. The wells were then filled with 100 μL of goat anti-mouse IgG-HRP conjugate (Zymed Labs) diluted in PBS-TWEEN and the plates re-incubated for 1 hour. The plates were then washed again, and 100 μL of K Blue substrate (Neogen Corp) was added. This was allowed to develop for 5–15 minutes, the reaction being stopped by the addition of 100 μL of 1 N HCl. Color was read by means of a microplate reader at […] and collected by computer for analysis. A criterion for selection was binding to the methamphetamine-BSA conjugate 28 (for selection of NEAMP 1.3) or MDEA-BSA conjugate 36 (for screening for NEAMP 48.2 and NEAMP 62.1). Clones chosen were immediately subcloned and, when ready, retested. Stable subclones were expanded, frozen, and the spent media used to determine specificity using the cross-reactivity assay.
as §1

The structures appear in SMILES notation.

As to `CCC(N)Cc1ccc2c(c1)OCO2` (centres unmarked) [BDB, 3,4-methylenedioxyphenyl-2-butanamine], the entries for the “% Cross-reactivity” value in the assay on antibody MDMA 2.1.1, with antibody NEAMP 48.2 and with antibody NEAMP 62.1 were 20.5%, 1% and 46%, respectively.

Turning to `CCC(Cc1ccc2c(c1)OCO2)NC` (centres unmarked) [MBDB, 3,4-methylenedioxyphenyl-N-methylbutanamine], the “% Cross-reactivity” value came to 26.1% in the assay on antibody MDMA 2.1.1, 3.9% in the assay on antibody NEAMP 1.3, 6% with antibody NEAMP 48.2 and 13% with antibody NEAMP 62.1.

As for `CC(N)Cc1ccc2c(c1)OCO2` (centres unmarked) [MDA, 3,4-methylenedioxyamphetamine], in the assay on antibody MDMA 2.1.1, the “% Cross-reactivity” value amounted to 60.6%.

With `CCNC(C)Cc1ccc2c(c1)OCO2` (centres unmarked) [MDEA, 3,4-methylenedioxy-N-ethylamphetamine], the “% Cross-reactivity” value amounted to 204% in the assay on antibody MDMA 2.1.1, 100% in the assay on antibody NEAMP 1.3, 100% with antibody NEAMP 48.2 and 100% with antibody NEAMP 62.1.

Regarding `CNC(C)Cc1ccc2c(c1)OCO2` (centres unmarked) [MDMA, 3,4-methylenedioxy-N-methylamphetamine], the “% Cross-reactivity” value was 100% in the assay with antibody MDMA 2.1.1, 22.5% in the assay on antibody NEAMP 1.3, 5% in the assay with antibody NEAMP 48.2 and 4.0% with antibody NEAMP 62.1.

For the molecule `CCCNC(C)Cc1ccc2c(c1)OCO2` (centres unmarked) [MDPA, 3,4-methylenedioxy-N-propylamphetamine], in the assay on antibody MDMA 2.1.1, the “% Cross-reactivity” value came out at 365%.

On to `CNCC(O)c1ccc(O)c(O)c1` (centres unmarked) [adrenaline], for which the “% Cross-reactivity” value with antibody MDMA 2.1.1 was determined as 0%.

For the molecule `C[C@H](N)Cc1ccccc1` [d-AMP, d-amphetamine], the figures for the “% Cross-reactivity” value with antibody MDMA 2.1.1, in the assay on antibody NEAMP 1.3 and in the assay with antibody NEAMP 48.2 were 0%, 6.4% and 0%, respectively.

As for `CN[C@@H](C)Cc1ccccc1` [d-MAMP, d-methamphetamine], the “% Cross-reactivity” value in the assay with antibody MDMA 2.1.1 turned out to be 0.65%; with antibody NEAMP 1.3, 19.7%; in the assay on antibody NEAMP 62.1, 0.5%.

Consider `CCNC(C)Cc1ccccc1` (stereo not drawn) [d-N-ethylamphetamine], for which the “% Cross-reactivity” value with antibody NEAMP 48.2 was 130%; in the assay on antibody NEAMP 62.1, 11%.

In the case of `CN[C@@H](C)[C@@H](O)c1ccccc1` [d-pseudoephedrine], the “% Cross-reactivity” value with antibody NEAMP 1.3 is given as 0.4%; in the assay with antibody NEAMP 48.2 it was 0.06%; in the assay on antibody NEAMP 62.1 it was 0.1%.

On to `CN[C@@H](C)[C@H](O)c1ccccc1` [ephedrine], for which the “% Cross-reactivity” value in the assay with antibody MDMA 2.1.1 amounted to 0%.

Regarding `C[C@@H](N)Cc1ccccc1` [l-AMP, l-amphetamine], the “% Cross-reactivity” value with antibody MDMA 2.1.1 stood at 0%; with antibody NEAMP 1.3 it was 6.6%.

Turning to `CN[C@H](C)Cc1ccccc1` [l-MAMP, l-methamphetamine], the “% Cross-reactivity” value came out at 0% with antibody MDMA 2.1.1, 0.5% in the assay with antibody NEAMP 48.2 and 0.2% in the assay with antibody NEAMP 62.1.

With `CN[C@@H](C)[C@H](O)c1ccccc1` [l-ephedrine], the “% Cross-reactivity” value in the assay on antibody NEAMP 1.3 is listed as 1.3%; in the assay on antibody NEAMP 48.2, 0%; with antibody NEAMP 62.1, 0.0%.

As for `NC[C@H](O)c1ccc(O)c(O)c1` [norepinephrine], the “% Cross-reactivity” value in the assay on antibody MDMA 2.1.1 came out at 0%.

For `C[C@H]1[C@H](c2ccccc2)OCCN1C` [phendimetrazine], the “% Cross-reactivity” value in the assay with antibody NEAMP 1.3 is 0.12%; in the assay on antibody NEAMP 48.2 it was 0.04%; in the assay with antibody NEAMP 62.1, 0.1%.

As to `CC(C)(N)Cc1ccccc1` [phentermine], in the assay on antibody MDMA 2.1.1, the “% Cross-reactivity” value turned out to be 0%.

With `CC(N)C(O)c1ccccc1` (centres unmarked) [phenylpropanolamine], in the assay with antibody MDMA 2.1.1, the “% Cross-reactivity” value came to 0%.

Take `CN[C@@H](C)[C@@H](O)c1ccccc1` [pseudoephedrine]: the “% Cross-reactivity” value in the assay on antibody MDMA 2.1.1 is 0%.

As for `c1cc2c(cc1[C@H]1OC[C@H]3[C@@H]1CO[C@@H]3c1ccc3c(c1)OCO3)OCO2` [sesamin], in the assay with antibody MDMA 2.1.1, the “% Cross-reactivity” value is 0%.

For the molecule `NCCc1ccc(O)cc1` [tyramine], the “% Cross-reactivity” value in the assay with antibody MDMA 2.1.1 is reported as 0%.
